Common to all, as to assay type: cell-based
Data set [1] can be described thus: Cell cytotoxicity 50 assay (CC50), MB200 cells, cell titer glo. Conditions: human. Summed up:
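Luminescence from CellTiter-Glo after 72 h of compound exposure at 37 °C gave the CC50 for MB200 cells. These were plated at 10 k cells/well in triplicate in supplemented F10 medium and treated with a serial dilution series prepared from a 10 mM stock.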
For orientation: ATP-based viability assays read luminescence as a measure of living cells.

Data set [2] can be described thus: Cell cytotoxicity 50 assay (CC50), HEK cells. The following applies: human. In outline: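 CC50 was fitted from total luminescence, measured 5 min after adding CellTiter-Glo reagent to HEK cells. The cells had been exposed for 72 h at 37 °C to medium serial dilutions prepared from a 10 mM drug solution.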
The subject of the next data set is MBD3L2 RNA. The data set is described as follows: RNA isolation and qPCR to determine MBD3L2 RNA levels in FSHD cells. Conditions: 48 hrs. Summed up: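 FSHD cells were treated one day after seeding with a DUX4 inhibitor (11 μM or 3.6 μM) for 48 h. Total RNA was DNase-treated and reverse-transcribed with random hexamers and M-MLV. MBD3L2 was quantified by SYBR Green qPCR in triplicate against EEF1A as the reference gene.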

Structures are written as SMILES.

In general, CC50 refers to the concentration at which the toxic effect on the cells reaches its halfway point. Lower therefore signals harm at low concentration.

For `CN(C(=O)CCCN1C(=O)CCC1=O)c1ccc(-c2nc3cc(F)ccc3s2)cc1` [Compound 144], the 50% cytotoxic concentration (CC50) at 72 h in data set [1] and in data set [2] was greater than 10 µM each time. Further, in the data set on MBD3L2 RNA, the “qPCR MBD3L2 Inhib at 11 µM” value was “YES”.
On to `O=C(CCCc1cccnc1)N[C@H]1CC[C@@H](c2nc3ccccc3s2)CC1` [Compound 163], for which the half-maximal cytotoxic concentration (CC50) at 72 h in data set [1] and in data set [2] was greater than 10 µM throughout. Further, the “qPCR MBD3L2 Inhib at 11 µM” value in the data set with MBD3L2 RNA was “YES”.
As to `CC(=O)NCCCC(=O)N[C@H]1CC[C@H](Cc2nc3ccccc3s2)CC1` [Compound 172], the CC50 at 72 h in data set [1] and in data set [2] was greater than 10 µM each time. Besides, in the data set with MBD3L2 RNA, the “qPCR MBD3L2 Inhib at 11 µM” value is “YES”.
Regarding `C=C(C)NCCC(=C)Nc1cc(C)cc(Cc2nc3ccccc3s2)c1` [Compound 120], the CC50 at 72 h in data set [1] and in data set [2] was greater than 10 µM in each case. Moreover, in the data set on MBD3L2 RNA, the “qPCR MBD3L2 Inhib at 11 µM” value was “YES”.
Consider `O=C(CCCN1C(=O)CCC1=O)NCCCc1nc2ccccc2s1` [Compound 91], for which the 50% cytotoxic concentration (CC50) at 72 h in data set [1] and in data set [2] was greater than 10 µM throughout. In the data set with MBD3L2 RNA, the “qPCR MBD3L2 Inhib at 11 µM” value is given as “YES”.
As for `CC(=O)NCCCC(=O)N[C@H]1C[C@@H](c2nc3ccccc3s2)C1` [Compound 113], the cytotoxic concentration (CC50) at 72 h in data set [1] and in data set [2] was greater than 10 µM each time. The “qPCR MBD3L2 Inhib at 11 µM” value with MBD3L2 RNA is “YES”.
For `O=C(Cc1ccc(-c2nc3ccccc3s2)cc1)NCCN1CCCC1=O` [Compound 119], the 50% cytotoxic concentration (CC50) at 72 h in data set [1] and in data set [2] was greater than 10 µM each time. Moreover, the “qPCR MBD3L2 Inhib at 11 µM” value in the data set with MBD3L2 RNA is given as “YES”.
`O=C(CCCCN1C(=O)CCC1=O)N[C@H]1CC[C@@H](c2nc3ccccc3s2)CC1` [Compound 151]: the 50% cytotoxic concentration (CC50) at 72 h in data set [1] and in data set [2] was greater than 10 µM in each case. The “qPCR MBD3L2 Inhib at 11 µM” value in the data set on MBD3L2 RNA was “YES”.
Consider `O=C(CCCN1CCCC1=O)NC1CCCC1c1nc2ccccc2s1` (stereo not drawn) [Compound 117], for which the half-maximal cytotoxic concentration (CC50) at 72 h in data set [1] and in data set [2] was greater than 10 µM throughout. The “qPCR MBD3L2 Inhib at 11 µM” value with MBD3L2 RNA is “YES”.
For `CC(=O)NCCCC(=O)Nc1cccc(-c2nc3ccccc3s2)c1` [Compound 71], the half-maximal cytotoxic concentration (CC50) at 72 h in data set [1] and in data set [2] was greater than 10 µM throughout. In the data set on MBD3L2 RNA, the “qPCR MBD3L2 Inhib at 11 µM” value was “YES”.
As for `CC(=O)CCCCC(=O)Nc1ccc(-c2nccs2)cc1` [Compound 23], the CC50 at 72 h in data set [1] and in data set [2] was greater than 10 µM each time. Also, the “qPCR MBD3L2 Inhib at 11 µM” value with MBD3L2 RNA is “YES”.
In the case of `O=C(CCC1CCC(=O)N1)Nc1ccc(Cc2nc3ccccc3s2)cc1` (stereo not drawn) [Compound 178], the 50% cytotoxic concentration (CC50) at 72 h in data set [1] and in data set [2] was greater than 10 µM each time. Besides, in the data set on MBD3L2 RNA, the “qPCR MBD3L2 Inhib at 11 µM” value is listed as “YES”.
In the case of `CC(=O)NCCCC(=O)NCCCc1nc2ccccc2s1` [Compound 106], the CC50 at 72 h in data set [1] and in data set [2] was greater than 10 µM in each case. Besides, in the data set on MBD3L2 RNA, the “qPCR MBD3L2 Inhib at 11 µM” value is “YES”.
With `CC(=O)NCCCNC(=O)c1ccc(-c2nc3ccccc3s2)o1` [Compound 149], the cytotoxic concentration (CC50) at 72 h in data set [1] and in data set [2] was greater than 10 µM throughout. Besides, the “qPCR MBD3L2 Inhib at 11 µM” value in the data set on MBD3L2 RNA was “YES”.
Take `CC(=O)N[C@H]1CC[C@@H](C(=O)Nc2nc3ccccc3s2)C1` [Compound 183]: the cytotoxic concentration (CC50) at 72 h in data set [1] and in data set [2] was greater than 10 µM each time. The “qPCR MBD3L2 Inhib at 11 µM” value with MBD3L2 RNA is on record as “YES”.
In the case of `O=C(CCN1CCCC1=O)Nc1ccc(Cc2nc3ccccc3s2)cc1` [Compound 8], the CC50 at 72 h in data set [1] and in data set [2] was greater than 10 µM each time. Besides, in the data set on MBD3L2 RNA, the “qPCR MBD3L2 Inhib at 11 µM” value is “YES”.
In the case of `CC(=O)NCCCC(=O)NC1CCC(c2nc3ccccc3s2)CC1` (stereo not drawn) [Compound 28], the cytotoxic concentration (CC50) at 72 h in data set [1] and in data set [2] was greater than 10 µM throughout. In addition, in the data set on MBD3L2 RNA, the “qPCR MBD3L2 Inhib at 11 µM” value was “YES”.
As to `O=C(NCCCN1C(=O)CCC1=O)c1ccc(-c2nc3ccccc3s2)cc1` [Compound 7], the CC50 at 72 h in data set [1] and in data set [2] was greater than 10 µM throughout. Also, the “qPCR MBD3L2 Inhib at 11 µM” value in the data set on MBD3L2 RNA is recorded as “YES”.
Regarding `O=C(CCCN1C(=O)CCC1=O)NC1CC(c2nc3ccccc3s2)C1` (stereo not drawn) [Compound 89], the CC50 at 72 h in data set [1] and in data set [2] was greater than 10 µM each time. The “qPCR MBD3L2 Inhib at 11 µM” value with MBD3L2 RNA is on record as “YES”.
